Test results from ChEMBL document CHEMBL4616651, “6-Deoxy- and 11-Hydroxytolypodiols: Meroterpenoids from the Cyanobacterium HT-58-2” (J Nat Prod, 2020).
Activity calls are given as the source filed them. The calls are words filed in the database; no cut-off is given here.

What was measured:
Microglia [1] = experiment: Antiinflammatory activity against LPS-induced rat Primary neonatal microglia assessed as inhibition in superoxide anion generation preincubated for 20 mins followed by PMA-stimulation and measured after 70 mins by spectrophotometric method; type: functional, cell-based
Microglia [2] = experiment: Antiinflammatory activity against LPS-induced rat Primary neonatal microglia assessed as inhibition in TXB2 generation preincubated for 20 mins followed by PMA-stimulation and measured after 70 mins by immunoassay; type: functional, cell-based
Mus musculus = experiment: Antiinflammatory activity in mouse assessed as reduction in PMA induced ear edema topically administered per ear and measured after 200 mins; type: functional

| Structure (SMILES) | inhibition (Microglia [1]) | IC50 (Microglia [2]) | ED50 (Mus musculus) |
| --- | --- | --- | --- |
| COC(=O)c1ccc2c(c1)C[C@H]1[C@]3(C)C[C@@H](O)[C@H]4C(C)(C)CC[C@@H](O)[C@]4(C)[C@H]3[C@@H](O)C[C@]1(C)O2 | inactive | 100 nM |  |
| C[C@]12CCC(=O)C=C1CC[C@@H]1[C@@H]2[C@@H](O)C[C@@]2(C)[C@H]1CC[C@]2(O)C(=O)CO [HYDROCORTISONE] |  |  | 20 µg |
| COC(=O)c1ccc2c(c1)C[C@H]1[C@]3(C)C[C@@H](O)[C@H]4C(C)(C)CC[C@@H](O)[C@]4(C)[C@H]3CC[C@]1(C)O2 [TOLYPODIOL] |  |  | 30 µg |
| CC(C(=O)O)c1ccc(-c2ccccc2)c(F)c1 (stereo not given) [FLURBIPROFEN] |  | 100 nM |  |
